These are literature values, as cited in US20230364244A1, “DENDRIMER COMPOSITIONS AND METHODS FOR DRUG DELIVERY TO INJURED KIDNEY” (Ashvattha Therapeutics, Inc., priority 2020, published 2023).

In the data set the target is T1, PPAR-δ (Homo sapiens, UniProt Q03181).
T1 construct: host or cells: human mesenchymal stem cells (endogenous receptor)
T1 sequence (Q03181 1-441): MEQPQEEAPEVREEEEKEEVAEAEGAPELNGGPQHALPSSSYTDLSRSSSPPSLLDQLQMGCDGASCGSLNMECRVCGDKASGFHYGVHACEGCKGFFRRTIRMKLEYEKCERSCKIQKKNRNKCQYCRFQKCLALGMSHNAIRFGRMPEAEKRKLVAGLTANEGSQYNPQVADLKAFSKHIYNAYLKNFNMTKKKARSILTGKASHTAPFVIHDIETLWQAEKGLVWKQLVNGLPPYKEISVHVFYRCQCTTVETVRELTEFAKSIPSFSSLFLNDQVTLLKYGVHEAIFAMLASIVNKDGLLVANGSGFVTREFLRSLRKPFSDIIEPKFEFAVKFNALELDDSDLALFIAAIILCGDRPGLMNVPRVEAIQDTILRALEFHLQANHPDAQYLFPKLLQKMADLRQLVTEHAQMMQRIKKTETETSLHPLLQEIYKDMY
The following applies: co-culture; inhibition of PPAR-δ in MSCs.

With `O=C(NCCS(=O)(=O)c1ccc(C(F)(F)F)cn1)c1ccc(Cl)cc1` [GSK3787], the “ability of human MSCs to limit proliferation of peripheral blood mononuclear cells” value is “enhanced their ability to limit proliferation of peripheral blood mononuclear cells”.
